Results published in paper PMC6277767, “Broad and Region-Specific Impacts of the Synthetic Cannabinoid CP 55,940 in Adolescent and Adult Female Mouse Brains” (Frontiers in Molecular Neuroscience, 2018).

Test system: CD1 female mouse brain lipidome
Assay: Brain-region lipid levels (HPLC/MS/MS lipidomics) 2 h after single i.p. 3 mg/kg CP 55,940 vs vehicle
Assay type: in vivo
Set-up: N-arachidonoyl phenylalanine level, Mean / N-stearoyl tryptophan level, Mean / N-stearoyl proline level, Mean / N-stearoyl leucine level, Mean / N-stearoyl phenylalanine level, Mean / N-stearoyl serine level, Mean / N-stearoyl methionine level, Mean: unit: moles per gram
Conditions: cerebellum
Experimental: The Bloomington Institutional Animal Care and Use Committee of Indiana University reviewed and approved the animal procedures. Female mice from the CD1 strain were utilized to match our study examining THC’s effects on the brain lipidome ([Leishman et al., 2018]). Mice were given a single i.p. injection of either 3 mg/kg CP or 1:1:18 cremophor:ethanol:saline vehicle (please refer to the section “3 mg/kg CP Is Relevant for Synthetic Cannabinoid Abuse and Has Stronger Effects on the Female Mouse Brain Lipidome During Adolescence” for a justification of dose and use of female mice). Three different age groups were given injections: PND 35 and PND 50 adolescents, and adult mice (PND 113). At least eight mice in each age group received CP and at least eight received vehicle. Matching the THC study time course ([Leishman et al., 2018]), mice were sacrificed via rapid decapitation 2 h after injection. Brains were immediately removed and flash-frozen in liquid nitrogen, and then stored at -80°C until dissections were performed. Brains were dissected on an ice-cold dissection plate into the following regions: STR, HIPP, CER, THAL, CTX, HYP, MID, and STEM. These abbreviations for these brain areas will be used exclusively when discussing the results generated by these specific dissections. Each dissected area was immediately placed in liquid nitrogen and then stored at -80°C until used for lipid extraction.
Tissue extracts were performed as previously described ([Bradshaw et al., 2006]; [Stuart et al., 2013]; [Raboune et al., 2014]; [Leishman et al., 2016a],[b], [2017], [2018]). First, samples were shock frozen in liquid nitrogen, weighed, and transferred to a centrifuge tube. The mass of the largest sample was multiplied by 50 to determine how many milliliters of HPLC-grade methanol (Fisher, Fair Lawn, NJ, United States) to add. Then, samples were spiked with 500 pmol deuterium-labeled NAGly (d8NAGly; Cayman Chemical, Ann Arbor, MI, United States). Samples were placed on ice in darkness for 2 h then individually homogenized and centrifuged at 19,000 × g for 20 min at 20°C. Supernatants were diluted with HPLC water (purified in house) to make a solution of 75% water, 25% supernatant. Lipids were partially purified on C18 solid phase extraction columns (Agilent, Palo Alto, CA, United States). A series of four elutions with 1.5 mL of 60%, 75%, 85%, and 100% methanol were collected ([Stuart et al., 2013]; [Leishman et al., 2016a],[b], [2018]).
As previously described ([Bradshaw et al., 2006]; [Tan et al., 2006]; [Smoum et al., 2010]; [Stuart et al., 2013]; [Tortoriello et al., 2013]; [Raboune et al., 2014]; [Leishman et al., 2016a],[b], [2017], [2018]), samples were analyzed using an Applied Biosystems API 3000 triple quadrupole mass spectrometer with electrospray ionization (Foster City, CA, United States). Using an Agilent XDB-C18 reversed phase analytical column and optimized mobile phase gradients, 20 μL from each elution were chromatographed. Two Shimadzu 10ADvp pumps (Columbia, MD, United States) provided the pressure for gradient elution. Mobile phase A: 20% methanol, 80% water (v/v) and 1 mM ammonium acetate (Sigma, St. Louis, MO, United States). Mobile phase B: 100% methanol, 1 mM ammonium acetate. Every method run began with 0% mobile phase B, reached 100% mobile phase B flowing at 0.2 mL/min, and gradually returned to 0% mobile phase B.
This screening library will be referred to as the lipidome when discussing data from this study. HPLC/MS/MS data were analyzed using Analyst software (Applied Biosystems) ([Bradshaw et al., 2006]; [Tan et al., 2006]; [Stuart et al., 2013]; [Tortoriello et al., 2013]; [Raboune et al., 2014]; [Leishman et al., 2016a],[b], [2017], [2018]). Chromatograms (Supplementary Figure 3) were generated by determining the retention time of analytes from the analytical column with a [M-1] or [M+1] parent peak and a fragmentation peak corresponding to the programmed values. […]

[1] = PND 50 female mice, 3 mg/kg CP 55,940
[2] = WT adult female mice, 3mg/kg CP 55,940

For `CCCCCCC(C)(C)c1ccc([C@@H]2C[C@H](O)CC[C@H]2CCCO)c(O)c1` [CP 55,940], which “N-arachidonoyl phenylalanine level, Mean” value [1] is on record?
Its value is 2.55E-13.

And the “N-arachidonoyl proline level, Mean” value [1]?
The value was “BDL”.

And the “N-arachidonoyl serine level, Mean” value [1]?
Its value is 4.25E-12.

What about the “N-arachidonoyl taurine level, Mean” value [1] of the same molecule?
Its value is 1.97E-11.

And the “N-arachidonoyl tryptophan level, Mean” value [1]?
Its value is “BDL”.

What about the “N-arachidonoyl tyrosine level, Mean” value [1] of the same molecule?
The value was 2.66E-13.

What about the “N-docosahexaenoyl GABA level, Mean” value [1] of the same molecule?
Its value is 9.21E-13.

What about the “N-docosahexaenoyl ethanolamine level, Mean” value [1] of the same molecule?
Its value is 3.09E-11.

And the “N-docosahexaenoyl glycine level, Mean” value [1]?
The value was 4.01E-13.

What about the “N-docosahexaenoyl leucine level, Mean” value [1] of the same molecule?
Its value is 2.06E-13.

And the “N-docosahexaenoyl phenylalanine level, Mean” value [1]?
Its value is 2.68E-13.

And the “N-docosahexaenoyl proline level, Mean” value [1]?
The value was “BDL”.

What about the “N-docosahexaenoyl serine level, Mean” value [1] of the same molecule?
Its value is 8.95E-12.

And the “N-docosahexaenoyl tryptophan level, Mean” value [1]?
Its value is “BDL”.

And the “N-docosahexaenoyl tyrosine level, Mean” value [1]?
The value was 6.76E-13.

And the “N-linoleoyl GABA level, Mean” value [1]?
Its value is 6.58E-13.

And the “N-linoleoyl alanine level, Mean” value [1]?
The value was 7.79E-14.

What about the “N-linoleoyl ethanolamine level, Mean” value [1] of the same molecule?
Its value is 3.74E-11.

What about the “N-linoleoyl glycine level, Mean” value [1] of the same molecule?
Its value is 1.39E-13.

What about the “N-linoleoyl leucine level, Mean” value [1] of the same molecule?
The value was 5.12E-14.

What about the “N-linoleoyl proline level, Mean” value [1] of the same molecule?
Its value is “BDL”.

And the “N-linoleoyl serine level, Mean” value [1]?
Its value is 5.53E-11.

What about the “N-linoleoyl tryptophan level, Mean” value [1] of the same molecule?
The value was “BDL”.

What about the “N-linoleoyl tyrosine level, Mean” value [1] of the same molecule?
The value was “BDL”.

And the “N-nervonoyl valine level, Mean” value [1]?
Its value is “BDL”.

What about the “N-oleoyl GABA level, Mean” value [1] of the same molecule?
The value was 2.42E-12.

What about the “N-oleoyl alanine level, Mean” value [1] of the same molecule?
Its value is 9.8E-13.

What about the “N-oleoyl dopamine level, Mean” value [1] of the same molecule?
Its value is “BDL”.

And the “N-oleoyl ethanolamine level, Mean” value [1]?
The value was 6.07E-11.

And the “N-oleoyl glycine level, Mean” value [1]?
The value was 1.13E-12.

And the “N-oleoyl leucine level, Mean” value [1]?
Its value is 5.63E-13.

And the “N-oleoyl methionine level, Mean” value [1]?
The value was 2.55E-13.

And the “N-oleoyl phenylalanine level, Mean” value [1]?
The value was 1.01E-12.

And the “N-oleoyl proline level, Mean” value [1]?
The value was “BDL”.

And the “N-oleoyl serine level, Mean” value [1]?
Its value is 1.05E-10.

What about the “N-oleoyl tryptophan level, Mean” value [1] of the same molecule?
Its value is “BDL”.

And the “N-oleoyl tyrosine level, Mean” value [1]?
The value was 3.12E-13.

And the “N-oleoyl valine level, Mean” value [1]?
The value was 4.78E-14.

And the “N-palmitoyl GABA level, Mean” value [1]?
The value was 5.13E-12.

What about the “N-palmitoyl alanine level, Mean” value [1] of the same molecule?
Its value is 2.64E-12.

What about the “N-palmitoyl ethanolamine level, Mean” value [1] of the same molecule?
The value was 5.07E-11.

And the “N-palmitoyl glycine level, Mean” value [1]?
Its value is 3.72E-12.

And the “N-palmitoyl leucine level, Mean” value [1]?
The value was 1.13E-12.

And the “N-palmitoyl methionine level, Mean” value [1]?
The value was 9.79E-13.

And the “N-palmitoyl phenylalanine level, Mean” value [1]?
The value was 1.27E-12.

And the “N-palmitoyl proline level, Mean” value [1]?
The value was “BDL”.

And the “N-palmitoyl serine level, Mean” value [1]?
The value was 1.43E-11.

And the “N-palmitoyl tryptophan level, Mean” value [1]?
Its value is “BDL”.

What about the “N-palmitoyl tyrosine level, Mean” value [1] of the same molecule?
The value was 6.09E-13.

What about the “N-palmitoyl valine level, Mean” value [1] of the same molecule?
The value was 1.77E-13.

What about the “N-stearoyl GABA level, Mean” value [1] of the same molecule?
The value was 5.74E-12.

And the “N-stearoyl alanine level, Mean” value [1]?
The value was 1.16E-12.

What about the “N-stearoyl ethanolamine level, Mean” value [1] of the same molecule?
The value was 2.6E-11.

And the “N-stearoyl glycine level, Mean” value [1]?
The value was 5.05E-13.

And the “N-stearoyl leucine level, Mean” value [1]?
Its value is 8.15E-13.

What about the “N-stearoyl methionine level, Mean” value [1] of the same molecule?
The value was 4.91E-13.

And the “N-stearoyl phenylalanine level, Mean” value [1]?
The value was 1.17E-12.

What about the “N-stearoyl proline level, Mean” value [1] of the same molecule?
Its value is “BDL”.

And the “N-stearoyl serine level, Mean” value [1]?
The value was 3.32E-11.

What about the “N-stearoyl tryptophan level, Mean” value [1] of the same molecule?
The value was “BDL”.

What about the “N-stearoyl tyrosine level, Mean” value [1] of the same molecule?
Its value is 1.08E-13.

And the “Oleic acid level, Mean” value [1]?
Its value is 2.36E-10.

What about the “PGE2 level, Mean” value [1] of the same molecule?
The value was 5.14E-11.

And the “THC level, Mean” value [1]?
The value was “BDL”.

What about the “2-arachidonoyl glycerol level, Mean” value [2] of the same molecule?
Its value is 4.32E-09.

What about the “2-linoleoyl glycerol level, Mean” value [2] of the same molecule?
The value was 2.44E-10.

And the “2-oleoyl glycerol level, Mean” value [2]?
Its value is 1.94E-09.

What about the “2-palmitoyl glycerol level, Mean” value [2] of the same molecule?
The value was 1.01E-10.

And the “6-ketoPGF1α level, Mean” value [2]?
Its value is 2.25E-11.

And the “Arachidonic acid level, Mean” value [2]?
Its value is 7.51E-10.

What about the “Linoleic acid level, Mean” value [2] of the same molecule?
The value was 6.75E-10.

What about the “N-arachidonoyl GABA level, Mean” value [2] of the same molecule?
The value was 1.22E-11.

What about the “N-arachidonoyl ethanolamine level, Mean” value [2] of the same molecule?
Its value is 1.33E-11.

And the “N-arachidonoyl glycine level, Mean” value [2]?
The value was 1.43E-13.

And the “N-arachidonoyl phenylalanine level, Mean” value [2]?
The value was 4.52E-14.

And the “N-arachidonoyl taurine level, Mean” value [2]?
The value was 6.54E-11.

And the “N-docosahexaenoyl GABA level, Mean” value [2]?
The value was 8.3E-12.

What about the “N-docosahexaenoyl ethanolamine level, Mean” value [2] of the same molecule?
The value was 2.78E-11.

What about the “N-docosahexaenoyl glycine level, Mean” value [2] of the same molecule?
Its value is 7.91E-14.

And the “N-docosahexaenoyl leucine level, Mean” value [2]?
The value was 1.51E-12.

What about the “N-docosahexaenoyl phenylalanine level, Mean” value [2] of the same molecule?
Its value is 3.04E-14.

And the “N-linoleoyl GABA level, Mean” value [2]?
The value was 7.7E-12.

What about the “N-linoleoyl alanine level, Mean” value [2] of the same molecule?
Its value is 2.18E-13.

And the “N-linoleoyl ethanolamine level, Mean” value [2]?
Its value is 1.87E-11.

What about the “N-linoleoyl glycine level, Mean” value [2] of the same molecule?
Its value is 6.99E-14.

And the “N-linoleoyl serine level, Mean” value [2]?
Its value is 1.99E-11.

What about the “N-oleoyl GABA level, Mean” value [2] of the same molecule?
The value was 1.65E-11.

What about the “N-oleoyl alanine level, Mean” value [2] of the same molecule?
The value was 2.34E-12.

And the “N-oleoyl ethanolamine level, Mean” value [2]?
The value was 2.04E-10.

What about the “N-oleoyl glycine level, Mean” value [2] of the same molecule?
The value was 2.49E-13.

And the “N-oleoyl leucine level, Mean” value [2]?
Its value is 1.06E-12.

And the “N-oleoyl phenylalanine level, Mean” value [2]?
The value was 6.03E-13.

And the “N-oleoyl serine level, Mean” value [2]?
The value was 1.05E-10.

And the “N-oleoyl tyrosine level, Mean” value [2]?
The value was 8.96E-13.

And the “N-oleoyl valine level, Mean” value [2]?
The value was 2.42E-14.

What about the “N-palmitoyl GABA level, Mean” value [2] of the same molecule?
The value was 2.25E-11.

What about the “N-palmitoyl alanine level, Mean” value [2] of the same molecule?
Its value is 1.61E-12.

And the “N-palmitoyl ethanolamine level, Mean” value [2]?
Its value is 6.47E-11.

And the “N-palmitoyl glycine level, Mean” value [2]?
The value was 1.24E-12.

And the “N-palmitoyl leucine level, Mean” value [2]?
Its value is 1.34E-12.

What about the “N-palmitoyl methionine level, Mean” value [2] of the same molecule?
The value was 6.89E-12.

And the “N-palmitoyl phenylalanine level, Mean” value [2]?
Its value is 1.87E-13.
